Measurements reported in ChEMBL document CHEMBL1201862, “PubChem BioAssay data set” (2004).
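Test compounds were applied to cells in 96-well plates for 48 hours at 5 doses. The concentration for 50% growth inhibition is given as GI50.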 Calls of active or inactive are those of the source. Cut-off read from the data, not from the text of the source: active = GI50 up to about 1.1 µM and inactive = higher.

Experiments:
Assay in all cases: NCI-60 cell line screen, 48 h
[1] = system: 786-0
[2] = system: A549
[3] = system: ACHN
[4] = system: CAKI-1
[5] = system: CCRF-CEM
[6] = system: COLO 205
[7] = system: DLD-1
[8] = system: DMS-114
[9] = system: DMS-273
[10] = system: EKVX
[11] = system: HCC 2998
[12] = system: HCT-116
[13] = system: HCT-15
[14] = system: HL-60
[15] = system: HOP-18
[16] = system: HOP-62
[17] = system: HOP-92
[18] = system: HT-29
[19] = system: IGROV-1
[20] = system: K562
[21] = system: KM-20L2
[22] = system: KM12
[23] = system: LOX IMVI
[24] = system: LXFL 529
[25] = system: M14
[26] = system: M19-MEL
[27] = system: MOLT-4
[28] = system: Malme-3M
[29] = system: NCI-H226
[30] = system: NCI-H23
[31] = system: NCI-H460
[32] = system: NCI-H522
[33] = system: OVCAR-3
[34] = system: OVCAR-4
[35] = system: OVCAR-5
[36] = system: OVCAR-8
[37] = system: RPMI-8226
[38] = system: RXF 631
[39] = system: SF-295
[40] = system: SF-539
[41] = system: SK-MEL-28
[42] = system: SK-MEL-2
[43] = system: SK-MEL-5
[44] = system: SK-OV-3
[45] = system: SN12C
[46] = system: SNB-19
[47] = system: SNB-75
[48] = system: SNB-78
[49] = system: SR
[50] = system: SW-620
[51] = system: TK-10
[52] = system: U-251
[53] = system: UACC-257
[54] = system: UACC-62
[55] = system: UO-31
[56] = system: XF498

Measured: GI50

Cc1cccc(-c2cc(=O)c3cc(C)c(C)c(C(=O)O)c3o2)c1
> 100 µM: [13]
inactive: [1] > 100 µM | [2] > 100 µM | [3] > 100 µM | [4] > 100 µM | [5] > 100 µM | [6] > 100 µM | [7] > 100 µM | [8] > 100 µM | [9] > 100 µM | [10] > 100 µM | [11] > 100 µM | [12] > 100 µM | [14] > 100 µM | [15] > 100 µM | [16] > 100 µM | [17] > 100 µM | [18] > 100 µM | [19] > 100 µM | [20] > 100 µM | [21] > 100 µM | [22] > 100 µM | [23] > 100 µM | [24] > 100 µM | [25] > 100 µM | [26] > 100 µM | [27] > 100 µM | [28] > 100 µM | [29] > 100 µM | [30] > 100 µM | [31] > 100 µM | [32] > 100 µM | [33] > 100 µM | [34] > 100 µM | [35] > 100 µM | [36] > 100 µM | [37] > 100 µM | [38] > 100 µM | [39] > 100 µM | [40] > 100 µM | [41] > 100 µM | [42] > 100 µM | [43] > 100 µM | [44] > 100 µM | [45] > 100 µM | [46] > 100 µM | [47] > 100 µM | [48] > 100 µM | [49] > 100 µM | [50] > 100 µM | [51] > 100 µM | [52] > 100 µM | [53] > 100 µM | [54] > 100 µM | [55] > 100 µM | [56] > 100 µM
